Like-named read-outs stand apart in the source and are kept apart here.
How the values were obtained:
[1] = test system: NS5A chimeric genotype 2a JFH-1 replicon with genotype 2b MD2b-1 strain NS5A gene (M31 present); assay: microbe, parasite or virus in culture; type: cell-based, HCV; settings: Hepatitis C virus
In short: (§1)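 Genotype 3a (S52) and 4a (ED43) NS5A chimeras use 1b Con1 Pi-RLuc replicons, transfected transiently; 2b MD2b-1 NS5A chimera (M31) uses 2a JFH-1 RLuc-Neo replicon, transient or stable.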

[2] = test system: NS5A chimeric genotype 1b Con1 replicon with genotype 3a S52 strain NS5A gene; assay: microbe, parasite or virus in culture; type: cell-based, HCV; settings: Hepatitis C virus
In short: as §1

[3] = test system: NS5A chimeric genotype 2a JFH-1 replicon with genotype 2a J6 strain NS5A gene (M31 present); assay: microbe, parasite or virus in culture; type: cell-based, HCV; settings: Hepatitis C virus
[4] = test system: stable HCV 2a JFH-1 Rluc replicon cells (L31 present in NS5A); assay: microbe, parasite or virus in culture; type: cell-based; settings: Hepatitis C virus
[5] = test system: 1a Pi-Rluc replicon with Q30R in genotype 1a NS5A; assay: microbe, parasite or virus in culture; type: cell-based, HCV; settings: Hepatitis C virus
In short: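 Renilla luciferase replicon assay: 1a Pi-RLuc replicon carrying NS5A Q30R, transfected transiently into cured-51 (Huh-7-derived) cells.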

[6] = test system: stable HCV 1a RLuc replicon cells (genotype 1a H77 replicon); assay: microbe, parasite or virus in culture; type: cell-based; settings: Hepatitis C virus
[7] = IV and PO single dose pharmacokinetic studies in SD rats; type: in vivo; settings: male, Sprague-Dawley, rat, plasma, IV infusion 1 mg/kg vs oral gavage 2 mg/kg, read-out: Rat % F
Procedure: IV and PO Single Dose Pharmacokinetic Studies in SD Rats: The pharmacokinetics of selected compounds was characterized in male Sprague-Dawley (SD) rats (250-300g). […] The intravenous (IV) dosing vehicle was 5% ethanol, 35% polyethylene glycol 400 (PEG 400) and 60% water pH 2.0. […] Serial blood samples (approximately 0.3 mL each) were collected from jugular vein or other suitable vein at specified time points. […] The blood samples were collected into Vacutainer™ tubes containing EDTA-K3 as the anti-coagulant and were centrifuged at approximately 4° C. to obtain plasma. The plasma samples were stored at −20° C. until analysis by LC/MS/MS. A bioanalytical method utilizing high performance liquid chromatography coupled to tandem mass spectrometry (LC/MS/MS) was developed for analysis of the selected compound in rat plasma. Detection was performed using selected reaction monitoring (SRM); […] Standard curve and quality control samples were prepared in male rat plasma and processed in the same way as the test samples to generate quantitative data. Pharmacokinetic parameters were generated using non-compartmental pharmacokinetic analysis (Phoenix WinNonlin, version 6.3). Values below the lower limit of quantification (LLOQ) were assigned a value of zero if predose and treated as missing thereafter. Area under the curve (AUC) was calculated using the linear trapezoidal rule. The oral bioavailability (% F) was determined by comparison of the area under the curve (AUC) of the compound and/or a metabolite generated in plasma following oral administration to that generated following intravenous administration.

[8] = test system: NS5A chimeric genotype 1b Con1 replicon with genotype 4a ED43 strain NS5A gene; assay: microbe, parasite or virus in culture; type: cell-based, HCV; settings: Hepatitis C virus

SMILES | EC50 ([1]; read-out: 2b) | EC50 ([1]; read-out: 2b (s) (nM)) | EC50 ([1]; read-out: 2b (t) (nM)) | EC50 ([2]; read-out: 3a) | EC50 ([2]; read-out: 3a (nM)) | EC50 ([3]; read-out: 2a J6) | EC50 ([3]; read-out: 2a Jb (t) (nM)) | EC50 ([4]; read-out: 2a JFH) | EC50 ([4]; read-out: 2a JFH (nM)) | EC50 ([5]; read-out: 1a Q30R) | EC50 ([5]; read-out: 1a Q30R (nM)) | EC50 ([6]; read-out: 1a) | EC50 ([6]; read-out: 1a (nM)) | bioavailability [7] | EC50 ([3]; read-out: 2a J6 (s) (nM)) | EC50 ([8]; read-out: 4a) | EC50 ([8]; read-out: 4a (s) (nM)) | EC50 ([8]; read-out: 4a (t) (nM))
COC(=O)N[C@H](C(=O)N1[C@@H](C)CC[C@H]1c1ncc(-c2ccc3c(c2)COc2cc4c(ccc5nc([C@@H]6C[C@H](C)CN6C(=O)[C@H](NC(=O)OC)c6ccccc6)[nH]c54)cc2-3)[nH]1)C(C)C [Compound 617] | < 1 nM | 0.011 nM | 0.013 nM | < 1 nM | 0.019 nM | < 1 nM | 0.032 nM | < 1 nM | 0.004 nM | < 1 nM | 0.024 nM | < 1 nM | 0.009 nM | 14.4% |  |  |  | 
COC[C@H]1C[C@@H](c2nc3ccc4cc5c(cc4c3[nH]2)OCc2cc(-c3cnc([C@@H]4C[C@H](C)CN4C(=O)[C@@H](NC(=O)OC)C(C)C)[nH]3)ccc2-5)N(C(=O)[C@H](NC(=O)OC)c2ccccc2)C1 [Example MN, methyl {(2S)-1-[(2S,4S)-2-(5-{2-[(2S,4S)-1-{(2R)-2-[(methoxycarbonyl)amino]-2-phenylacetyl}-4-(methoxymethyl)pyrrolidin-2-yl]-1,11-dihydroisochromeno[4′,3′:6,7]naphtho[1,2-d]imidazol-9-yl}-1H-imidazol-2-yl)-4-methylpyrrolidin-1-yl]-3-methyl-1-oxobutan-2-yl}carbamate] | < 1 nM | 0.04 nM | 0.013 nM | < 1 nM | 0.034 nM | < 1 nM | 0.017 nM | < 1 nM | 0.008 nM | < 1 nM | 0.018 nM | < 1 nM | 0.014 nM | 1.5% | 0.071 nM | < 1 nM | 0.007 nM | 0.024 nM
COC[C@H]1C[C@@H](c2nc3ccc4cc5c(cc4c3[nH]2)OCc2cc(-c3cnc([C@@H]4C[C@H](C)CN4C(=O)[C@@H](NC(=O)OC)C(C)C)[nH]3)ccc2-5)N(C(=O)[C@@H](NC(=O)OC)C(C)C)C1 [Example MO, methyl {(2S)-1-[(2S,4S)-2-(5-{2-[(2S,4S)-1-{(2S)-2-[(methoxycarbonyl)amino]-3-methylbutanoyl}-4-methoxymethylpyrrolidin-2-yl]-1,11-dihydroisochromeno[4′,3′:6,7]naphtho[1,2-d]imidazol-9-yl}-1H-imidazol-2-yl)-4-methylpyrrolidin-1-yl]-3-methyl-1-oxobutan-2-yl}carbamate] | < 1 nM | 0.427 nM | 0.137 nM | < 1 nM | 0.051 nM | < 1 nM | 0.089 nM | < 1 nM | 0.007 nM | < 1 nM | 0.052 nM | < 1 nM | 0.013 nM | 7.46% | 0.471 nM | < 1 nM | 0.018 nM | 0.022 nM
COC[C@H]1C[C@@H](c2ncc(-c3ccc4c(c3)COc3cc5c(ccc6nc([C@@H]7C[C@H](C)CN7C(=O)[C@@H](NC(=O)OC)C(C)C)[nH]c65)cc3-4)[nH]2)N(C(=O)[C@H](NC(=O)OC)c2ccccc2)C1 [Example NM, Methyl {(1R)-2-[(2S,4S)-2-(5-{2-[(2S,4S)-1-{(2S)-2-[(methoxycarbonyl)amino]-3-methylbutanoyl}-4-methylpyrrolidin-2-yl]-1,11-dihydroisochromeno[4′,3′:6,7]naphtho[1,2-d]imidazol-9-yl}-1H-imidazol-2-yl)-4-(methoxymethyl)pyrrolidin-1-yl]-2-oxo-1-phenylethyl}carbamate] | < 1 nM |  | 0.013 nM | < 1 nM | 0.024 nM | < 1 nM | 0.012 nM | < 1 nM | 0.006 nM | < 1 nM | 0.028 nM | < 1 nM | 0.011 nM | 6.93% |  |  |  | 

Source: patent US8575135B2 (Gilead Sciences, Inc., priority 2011, dated 2013)
